Experiment [1] has as its system BACE2 (Tmem27 cleavage) in isolated human pancreatic islets. The note with it: 200 nM, 72 h, islets from two human donors. Here is the method:
Freshly isolated human islets from two different donors (male, 51 years, BMI: 27.5 kg/m2; […], BMI: 22.2 kg/m2; circa 3000 islets per donor) were obtained from Dr. D. Bosco (Cell Isolation and Transplantation Center, Department of Surgery, Geneva, Switzerland) and maintained in CMRL-1066 (Invitrogen) at 5.6 mmol/l glucose supplemented with 10% FCS, 100 U/ml penicillin, 100 μg/ml streptomycin and 100 μg/ml gentamycin (Sigma) for 2 days before experiments. The present investigation was approved by the institutional ethics committee. […] Islets were collected by centrifugation and total proteins were extracted using CELYA lysis buffer CLB1 (Cat*9000, Zeptosens) following the manufacturer's protocol.
Total islet proteins (10 μg) were fractionated by NuPAGE 4-12% Bis-TrisGel (Cat*NP0321Box, Invitrogen) and transferred to nitrocellulose using iBlot system (Cat*IB3010-01, Invitrogen).

Experiment [2] relates to Zucker Diabetic Fatty (ZDF) rats. In words: Oral glucose tolerance test (oGTT) after chronic treatment of ZDF rats. It is filed as in vivo, rat. As to the method: This study was conducted with male ZDF rats [ZDF/gmiCrl fa/fa] and lean rats [ZDF/gmiCrl fa/+] (Charles River Laboratories, Sulzfeld, Germany). The ZDF rats are a commonly used model of human type 2 diabetes characterized by insulin resistance, β-cell defects and hyperglycemia. Onset of diabetes in males is at the age of 8 to 10 weeks when fed a diabetogenic diet. All rats (ZDF and Lean rats) with an age of 6 weeks at the beginning of the experiment are fed a special diet (“PURINA PMI 5008”, ZDF_diet=Ssniff R/M−H) and housed 1 per cage (type 3). Ambient temperature is approximately 21° C. and relative humidity 55-65%. A 12 hours light-dark cycle is maintained in the rooms with all tests being performed during the light phase. Access to food and tap water is ad libitum.
(§1) Body weight and food intake were monitored daily. Blood glucose was measured weekly in all rats. After 3 weeks of treatment an oGTT was performed on 6 overnight fasted rats per groups. At about week 4 and after anesthesia, 2 to 3 ZDF rats per day and per group underwent pancreas surgery and in-situ pancreas perfusion with low/high glucose conditions. 120 eluted fractions per rat were collected for glucose and insulin quantification.
An oGTT was conducted on day 18 of treatment. After on overnight fast of approximately 16 h post treatment, rats were given a glucose load of 2 g/kg by gavage. Blood samples were collected immediately prior to glucose challenge (0 min) and +10, +30, +60 and +120 min after glucose challenge and blood glucose and other plasma parameters were determined.
Blood glucose was measured with a blood glucose monitoring system (Accu-Chek Aviva, Roche Diagnostics GmbH, Rotkreuz, Switzerland). Insulin was measured by ELISA, using the Mercodia Rat Insulin ELISA (Mercodia AB, Uppsala, Sweden).
Data were analyzed using the software SAS/JMP for Windows (version 6.0.0, SAS Institute Inc., Cary, N.C.). Data were expressed as mean±SEM (standard error of the mean). The number of rats was 6 per group. Comparison was made versus Vehicle, using Analysis of Variance ANOVA followed by post hoc Dunnett's test.

The subject of a further experiment is pancreas of ZDF rats. In words: Assessment of β-cell function by in situ pancreas perfusion (glucose-stimulated insulin secretion). It is filed as in vivo, rat. As to the method: as §1
Rats were anesthetized (Temgesic (0.1 ml/100 g) first, then anesthetic cocktail: Ketamine (77 mg/kg), Xylazine (11 mg/kg), i.p. injection, volume 2 ml/kg). Pancreas was surgically isolated from other connecting organs and from nerves and veins and artery afferences and efferences, keeping access to abdominal aorta and portal vein which are both cannulated. Once surgery was done, rats were placed into a temperature controlled box (37° C.) and pancreata were connected to infusion pumps via abdominal aorta.
The glucose-stimulated insulin secretion (GSIS) was obtained by perfusing pancreata with Krebs-Ringer buffer containing low/high glucose concentration as described into protocol designed in FIG. 7. Basically, pancreata were first perfused with freshly prepared Krebs-Ringer solution (5 ml/min) containing low glucose concentration (2.8 mM) for about 30 minutes, stabilizing basal insulin secretion. Then, the first stimulation with high glucose concentration solution (16.7 mM) was given to sensitize the pancreata, leading to modest phase 1 and phase 2 insulin secretion.
Pancreas elution fractions were collected in 96-well plates (via a catheter introduced into the portal vein) at regular time intervals and immediately cooled down to 4° C. and subsequently stored at −20° C. until analyzed. At least, 120 eluted fractions per rat were collected for measurement of glucose and insulin levels.

Entries after “also recorded” stand apart in the source; their conditions may differ.

As to `C[C@@]1(c2cc(NC(=O)c3ccc(Cl)cn3)ccc2F)CCSC(N)=N1` (single isomer, unassigned) [Example 1], in experiment [1], the “full-length TMEM27 (immunoblot)” value is given as “stabilized the full length of TMEM27; also recorded: preservation of full-length TMEM 27”. Also, the “Insulin AUC (0-120 minutes) during oGTT” value in experiment [2] (8.5 week old ZDF rats treated 17 days, 0.2, 5, 30 mg/kg p.o.) was “dose-dependent increase in insulin levels without reaching significance”. For the same compound, in experiment [2] (8.5 week old ZDF rats treated 17 days, Example 1 p.o., Liraglutide 0.4 mg/kg s.c.), the fasting insulin levels entry is listed as “did not change fasting insulin levels compared to vehicle”. The “insulin levels during oGTT (post glucose challenge)” value in experiment [2] (8.5 week old ZDF rats treated 17 days, glucose 2 g/kg, Example 1 0.2, 5, 30 mg/kg p.o., Liraglutide 0.4 mg/kg s.c.) is “increased insulin levels (at peak and up to 60 minutes post glucose challenge); also recorded: dose-dependent increase in insulin levels secreted during oGTT”. Besides, the “fasting blood glucose (FBG) after overnight fasting” value in experiment [2] (8.5 week old ZDF rats, Example 1 0.2-5-30 mg/kg p.o., Liraglutide 0.4 mg/kg s.c., 17 days) was “trend to reduce fasting blood glucose after overnight fasting conditions (FBG) without reaching significance”. In addition, the “efficacy in oGTT compared with Liraglutide” value in experiment [2] (Example 1 30 mg/kg p.o. versus Liraglutide 0.4 mg/kg s.c., chronic treatment) is on record as “close to that induced by chronic treatment with Liraglutide”. Besides, in experiment [2] (ZDF rats after 17 days of oral treatment (summary)), the post-challenged glucose levels entry is “reduced post-challenged glucose levels”. The “improvement of glucose tolerance (blood glucose during oGTT)” value in experiment [2] (ZDF rats, 30 mg/kg p.o. daily for 17 days, versus vehicle) was “reached significance at 30′, 60′ and 120′ post glucose challenge”. For the same compound, in experiment [2] (ZDF rats, 0.2, 5, 30 mg/kg p.o. daily for 17 days, oGTT day 18, versus vehicle), the “glucose area under the curve (AUC 0-120 minutes) during oGTT” value is listed as “dose-dependently reduced; also recorded: dose dependent reduction of glucose AUC reaching significant values at 30 mg/kg”. The “AUC off-response of insulin secretion (perfused pancreas)” value in the experiment on pancreas of ZDF rats (30 mg/kg, 3 to 4 weeks of treatment, after high glucose 16.7 mM, versus vehicle) was “reduced”. Further, the “basal insulin secretion (perfused pancreas)” value with pancreas of ZDF rats (30 mg/kg, 3 to 4 weeks of treatment, low glucose 2.8 mM, versus vehicle) is given as “reduced”. The “insulin secretion profile (Phase 1/Phase 2)” value in the experiment with pancreas of ZDF rats (ZDF rats, chronic treatment, in situ pancreas perfusion) is “normalized the insulin secretion profile (Phase 1/Phase 2)”.
